Measured values from ChEMBL document CHEMBL1153695, “Asymmetrical diaromatic guanidinium/2-aminoimidazolinium derivatives: synthesis and DNA affinity” (J Med Chem, 2009).

Tests used:
Assay type in all cases: nucleic-acid assay
[1] = test system: Nucleic Acid; test: Binding affinity to Salmon sperm DNA in phosphate buffer assessed as change in melting temperature; settings: Oncorhynchus
[2] = test system: Nucleic Acid; test: Binding affinity to Poly(dA.dT)2 DNA in phosphate buffer assessed as change in melting temperature
[3] = test system: Nucleic Acid; test: Binding affinity to Poly(dA).Poly(dT) DNA in MES buffer assessed as change in melting temperature

ΔTm [1] [°C] | ΔTm [2] [°C] | ΔTm [3] [°C] | SMILES
4 |  |  | N=C(N)Oc1ccc(Oc2ccc(O)cc2)cc1
2 |  |  | N=C(N)Nc1ccc(Nc2ccc(N)cc2)cc1
0 |  |  | N=C(N)Nc1ccc(CCc2ccc(N)cc2)cc1
4 |  |  | N=C(N)Oc1ccc(Cc2ccc(OC(=N)N)cc2)cc1
1 |  |  | Nc1ccc(N2CCN(c3ccc(N=C4NCCN4)cc3)CC2)cc1
4 |  |  | Nc1ccc(NC(=O)Nc2ccc(N=C3NCCN3)cc2)cc1
2 |  |  | N=C(N)Nc1ccc(Sc2ccc(N)cc2)cc1
12 | 17.5 | 35.1 | N=C(N)Nc1ccc(Nc2ccc(N=C3NCCN3)cc2)cc1
6 |  |  | N=C(N)Oc1ccc(Oc2ccc(OC(=N)N)cc2)cc1
7 | 9 | 23 | N=C(N)Nc1ccc(Sc2ccc(N=C3NCCN3)cc2)cc1
5 |  |  | N=C(N)Oc1ccc(Sc2ccc(OC(=N)N)cc2)cc1
9 | 15 | 31.1 | N=C(N)Nc1ccc(N2CCN(c3ccc(N=C4NCCN4)cc3)CC2)cc1
0 |  |  | Nc1ccc(CCc2ccc(N=C3NCCN3)cc2)cc1
8 | 15 | 32 | N=C(N)Nc1ccc(C(=O)c2ccc(N=C3NCCN3)cc2)cc1
2 |  |  | Nc1ccc(Nc2ccc(N=C3NCCN3)cc2)cc1
0 |  |  | Nc1ccc(Sc2ccc(N=C3NCCN3)cc2)cc1
2 |  |  | N=C(N)Oc1ccc(Cc2ccc(O)cc2)cc1
0 |  |  | N=C(N)Nc1ccc(C(=O)c2ccc(N)cc2)cc1
3 |  |  | Nc1ccc(Cc2ccc(N=C3NCCN3)cc2)cc1
0 |  |  | Nc1ccc(Oc2ccc(N=C3NCCN3)cc2)cc1
3 |  |  | N=C(N)Nc1ccc(Cc2ccc(N)cc2)cc1
2 |  |  | N=C(N)Nc1ccc(Oc2ccc(N)cc2)cc1
7 | 10 | 25.3 | N=C(N)Nc1ccc(Oc2ccc(N=C3NCCN3)cc2)cc1
2 |  |  | N=C(N)Nc1ccc(N2CCN(c3ccc(N)cc3)CC2)cc1
2 |  |  | N=C(N)Oc1ccc(Sc2ccc(O)cc2)cc1
2 |  |  | N=C(N)Nc1ccc(NC(=O)Nc2ccc(N)cc2)cc1
11.5 | 14 | 30 | N=C(N)Nc1ccc(NC(=O)Nc2ccc(N=C3NCCN3)cc2)cc1
6 | 6 | 17.2 | N=C(N)Nc1ccc(Cc2ccc(N=C3NCCN3)cc2)cc1
8 | 16 | 29 | N=C(N)Nc1ccc(CCc2ccc(N=C3NCCN3)cc2)cc1

SMILES | ΔTm [1] [°C] | ΔTm [2] [°C] | ΔTm [3] [°C]
Cn1cc(NC(=O)c2cc(NC(=O)CNC(=N)N)cn2C)cc1C(=O)NCCC(=N)N |  | 39 | 
